What all share (experiment): Agar dilution test, minimum inhibitory concentration
What all share (format): cell-based
Background: In agar dilution the substance is mixed into plates at graded concentrations.

One assay deals with E.coli 455/7. The following applies: Escherichia coli; test strain E.coli 455/7; Isosensitest-Agar (Oxoid), inoculum ca. 10^4 germs per inoculation point; read-out: Minimale Hemmkonzentrationen.
A further assay deals with Proteus mir. 8223. The following applies: test strain Proteus mir. 8223; Isosensitest-Agar (Oxoid), inoculum ca. 10^4 germs per inoculation point; read-out: Minimale Hemmkonzentrationen.
The next assay concerns Proteus mir. 8175. The following applies: test strain Proteus mir. 8175; Isosensitest-Agar (Oxoid), inoculum ca. 10^4 germs per inoculation point; read-out: Minimale Hemmkonzentrationen.
For the next assay, the system named is Providencia 12052. As to conditions: test strain Providencia 12052; Isosensitest-Agar (Oxoid), inoculum ca. 10^4 germs per inoculation point; read-out: Minimale Hemmkonzentrationen.
Another assay relates to Serratia 16040. The following applies: test strain Serratia 16040; Isosensitest-Agar (Oxoid), inoculum ca. 10^4 germs per inoculation point; read-out: Minimale Hemmkonzentrationen.
The next assay concerns Staph. FK 422. The following applies: test strain Staph. FK 422; Isosensitest-Agar (Oxoid), inoculum ca. 10^4 germs per inoculation point; read-out: Minimale Hemmkonzentrationen.
Another assay relates to Staph. 1756. As to conditions: test strain Staph. 1756; Isosensitest-Agar (Oxoid), inoculum ca. 10^4 germs per inoculation point; read-out: Minimale Hemmkonzentrationen.
In another assay the test system is Staph. 133. As to conditions: test strain Staph. 133; Isosensitest-Agar (Oxoid), inoculum ca. 10^4 germs per inoculation point; read-out: Minimale Hemmkonzentrationen.
The subject of a further assay is Pseudomonas Walter. As to conditions: test strain Pseudomonas Walter; Isosensitest-Agar (Oxoid), inoculum ca. 10^4 germs per inoculation point; read-out: Minimale Hemmkonzentrationen.
The test system of a further assay is E.coli A261. The following applies: Escherichia coli; test strain E.coli A261; Isosensitest-Agar (Oxoid), inoculum ca. 10^4 germs per inoculation point; read-out: Minimale Hemmkonzentrationen.
The next assay has as its system Klebsiella 63. The following applies: test strain Klebsiella 63; Isosensitest-Agar (Oxoid), inoculum ca. 10^4 germs per inoculation point; read-out: Minimale Hemmkonzentrationen.
In another assay the test system is Klebsiella 8085. As to conditions: test strain Klebsiella 8085; Isosensitest-Agar (Oxoid), inoculum ca. 10^4 germs per inoculation point; read-out: Minimale Hemmkonzentrationen.
The subject of another assay is Morg. morg. 932. The following applies: test strain Morg. morg. 932; Isosensitest-Agar (Oxoid), inoculum ca. 10^4 germs per inoculation point; read-out: Minimale Hemmkonzentrationen.
In a further assay the test system is Morg. morg. 11006. As to conditions: test strain Morg. morg. 11006; Isosensitest-Agar (Oxoid), inoculum ca. 10^4 germs per inoculation point; read-out: Minimale Hemmkonzentrationen.
Another assay has as its system Providencia 12012. The following applies: test strain Providencia 12012; Isosensitest-Agar (Oxoid), inoculum ca. 10^4 germs per inoculation point; read-out: Minimale Hemmkonzentrationen.
The next assay has as its system Enteroc. 27101. As to conditions: test strain Enteroc. 27101; Isosensitest-Agar (Oxoid), inoculum ca. 10^4 germs per inoculation point; read-out: Minimale Hemmkonzentrationen.
A further assay relates to Enteroc. 9790. As to conditions: test strain Enteroc. 9790; Isosensitest-Agar (Oxoid), inoculum ca. 10^4 germs per inoculation point; read-out: Minimale Hemmkonzentrationen.
Another assay concerns Pseudomonas Ellsworth. The following applies: test strain Pseudomonas Ellsworth; Isosensitest-Agar (Oxoid), inoculum ca. 10^4 germs per inoculation point; read-out: Minimale Hemmkonzentrationen.

Each structure is given as a SMILES string. In brackets after ≈: the same amount, converted by molar mass.

With `CC1CN(c2c(F)c(N)c3c(=O)c(C(=O)O)cn(C4CC4)c3c2F)CCN1` (stereo not shown) [Beispiel 17, 5-Amino-1-cyclopropyl-6,8-difluor-1,4-dihydro-7-(3-methyl-1-piperazinyl)-4-oxo-3-chinolincarbonsäure], the MIC with E.coli 455/7 was found to be 0.5 µg/mL (≈ 1.32 µM); in the assay with Proteus mir. 8223 it was 0.25 µg/mL (≈ 0.661 µM); in the assay with Proteus mir. 8175 it was 0.06 µg/mL (≈ 0.159 µM); in the assay on Providencia 12052, 2 µg/mL (≈ 5.29 µM); in the assay on Serratia 16040, 2 µg/mL (≈ 5.29 µM); in the assay with Staph. FK 422, 0.03 µg/mL (≈ 0.0793 µM). The MIC was 0.03 µg/mL (≈ 0.0793 µM) in the assay with Staph. 1756, 0.03 µg/mL (≈ 0.0793 µM) with Staph. 133 and 0.25 µg/mL (≈ 0.661 µM) in the assay with Pseudomonas Walter.
In the case of `CCN1CCN(c2c(F)c(N)c3c(=O)c(C(=O)O)cn(C4CC4)c3c2F)CC1` [Beispiel 20, 5-Amino-1-cyclopropyl-7-(4-ethyl-1-piperazinyl)-6,8-difluor-1.4-dihydro-4-oxo-3-chinolincarbonsäure], the MIC with E.coli 455/7 turned out to be 2 µg/mL (≈ 5.1 µM); with E.coli A261, 0.25 µg/mL (≈ 0.637 µM); in the assay on Klebsiella 63, 0.03 µg/mL (≈ 0.0765 µM); with Klebsiella 8085, 0.06 µg/mL (≈ 0.153 µM); in the assay on Proteus mir. 8223, 0.25 µg/mL (≈ 0.637 µM); in the assay on Morg. morg. 932 it was 0.03 µg/mL (≈ 0.0765 µM). In addition, the MIC with Morg. morg. 11006 was 0.06 µg/mL (≈ 0.153 µM); in the assay on Providencia 12012, 0.06 µg/mL (≈ 0.153 µM); in the assay with Providencia 12052 it was 1 µg/mL (≈ 2.55 µM); in the assay on Serratia 16040 it was 4 µg/mL (≈ 10.2 µM); in the assay with Staph. FK 422, 0.06 µg/mL (≈ 0.153 µM); with Staph. 1756, 0.06 µg/mL (≈ 0.153 µM). Also, the MIC stood at 0.06 µg/mL (≈ 0.153 µM) with Staph. 133; 0.25 µg/mL (≈ 0.637 µM) in the assay with Enteroc. 27101; 0.25 µg/mL (≈ 0.637 µM) in the assay with Enteroc. 9790; 1 µg/mL (≈ 2.55 µM) with Pseudomonas Walter; 0.03 µg/mL (≈ 0.0765 µM) in the assay with Pseudomonas Ellsworth.
With `Nc1c(F)c(N2CCN(CCO)CC2)c(F)c2c1c(=O)c(C(=O)O)cn2C1CC1` [Beispiel 21], the MIC in the assay with E.coli 455/7 is 2 µg/mL (≈ 4.9 µM); in the assay with E.coli A261, 0.5 µg/mL (≈ 1.22 µM); with Klebsiella 63, 0.06 µg/mL (≈ 0.147 µM); in the assay on Klebsiella 8085, 0.06 µg/mL (≈ 0.147 µM); in the assay on Proteus mir. 8223 it was 0.5 µg/mL (≈ 1.22 µM); with Morg. morg. 932, 0.03 µg/mL (≈ 0.0735 µM). Moreover, the MIC in the assay with Providencia 12012 worked out at 0.06 µg/mL (≈ 0.147 µM); in the assay with Providencia 12052 it was 2 µg/mL (≈ 4.9 µM); in the assay with Serratia 16040, 4 µg/mL (≈ 9.79 µM); with Staph. FK 422, 0.06 µg/mL (≈ 0.147 µM); in the assay with Staph. 1756, 0.06 µg/mL (≈ 0.147 µM); in the assay with Staph. 133 it was 0.06 µg/mL (≈ 0.147 µM). Moreover, the MIC in the assay with Enteroc. 27101 was 0.25 µg/mL (≈ 0.612 µM); with Enteroc. 9790, 0.25 µg/mL (≈ 0.612 µM); with Pseudomonas Walter it was 1 µg/mL (≈ 2.45 µM).
Consider `C[C@@H]1CN(c2c(F)c(N)c3c(=O)c(C(=O)O)cn(C4CC4)c3c2F)C[C@H](C)N1` [Beispiel 22, 5-Amino-1-cyclopropyl-6,8-difluor-1,4-dihydro-7-(cis-3,5-dimethyl-1-piperazinyl)-4-oxo-3-chinolincarbonsäure], for which the MIC in the assay with E.coli 455/7 was 0.5 µg/mL (≈ 1.27 µM); in the assay on Klebsiella 63, 0.03 µg/mL (≈ 0.0765 µM); with Klebsiella 8085 it was 0.06 µg/mL (≈ 0.153 µM); in the assay on Proteus mir. 8223 it was 0.5 µg/mL (≈ 1.27 µM); with Proteus mir. 8175, 0.06 µg/mL (≈ 0.153 µM); in the assay with Morg. morg. 932 it was 0.03 µg/mL (≈ 0.0765 µM). Moreover, the MIC in the assay with Morg. morg. 11006 amounted to 0.03 µg/mL (≈ 0.0765 µM); with Providencia 12012, 0.03 µg/mL (≈ 0.0765 µM); in the assay with Providencia 12052, 1 µg/mL (≈ 2.55 µM); in the assay on Serratia 16040 it was 2 µg/mL (≈ 5.1 µM); in the assay on Staph. FK 422, 0.03 µg/mL (≈ 0.0765 µM); with Staph. 1756, 0.03 µg/mL (≈ 0.0765 µM). The MIC in the assay on Staph. 133 was 0.03 µg/mL (≈ 0.0765 µM); in the assay with Enteroc. 9790, 0.25 µg/mL (≈ 0.637 µM); with Pseudomonas Walter it was 0.5 µg/mL (≈ 1.27 µM); in the assay with Pseudomonas Ellsworth, 0.03 µg/mL (≈ 0.0765 µM).
In the case of `Nc1c(F)c(N2CCNC(c3ccccc3)C2)c(F)c2c1c(=O)c(C(=O)O)cn2C1CC1` (stereo not shown) [Beispiel 23, 5-Amino-1-cyclopropyl-6,8-difluor-1,4-dihydro-4-oxo-7-(3-phenyl-1-piperazinyl)-3-chinolincarbonsäure], the MIC came to 1 µg/mL (≈ 2.27 µM) with E.coli 455/7; 0.25 µg/mL (≈ 0.568 µM) in the assay with E.coli A261; 0.03 µg/mL (≈ 0.0681 µM) with Klebsiella 8085; 0.06 µg/mL (≈ 0.136 µM) with Proteus mir. 8175; 0.03 µg/mL (≈ 0.0681 µM) with Morg. morg. 11006; 1 µg/mL (≈ 2.27 µM) in the assay on Providencia 12052. Besides, the MIC worked out at 2 µg/mL (≈ 4.54 µM) with Serratia 16040, 0.03 µg/mL (≈ 0.0681 µM) in the assay with Enteroc. 27101, 0.06 µg/mL (≈ 0.136 µM) in the assay with Enteroc. 9790 and 1 µg/mL (≈ 2.27 µM) in the assay on Pseudomonas Walter.

These data come from EP0284935A1, “5-Substituted quinolone- and naphthyridone carboxylic acid derivatives” (BAYER AG, priority 1987, dated 1988).
